Experimental data from PubChem BioAssay (NCI).
Where “and” joins values, the source holds several entries; their conditions need not be identical. Equal entries are not always repeated.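 Cultured in 96-well plates, cells were exposed to test compound for 48 hours across five concentrations. Here, GI50 denotes the concentration required for 50% inhibition of growth. TGI marks complete inhibition of growth.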

Legend:
Assay in all cases: NCI anticancer screen, dose series, 48 h
DMS 114 small cell lung = test system: DMS 114 small cell lung
HOP-18 NSCLC = test system: HOP-18 NSCLC
DMS 273 small cell lung = test system: DMS 273 small cell lung
LXFL 529 NSCLC = test system: LXFL 529 NSCLC
SNB-78 CNS = test system: SNB-78 CNS
M19-MEL melanoma = test system: M19-MEL melanoma
XF 498 CNS = test system: XF 498 CNS
RXF-631 renal = test system: RXF-631 renal
MDA-N = test system: MDA-N

For `Cc1ccc(Nc2nc3c(s2)C(=O)c2ccccc2C3=O)c(C)c1`, the TGI (DMS 114 small cell lung) was 24.1 µM, the TGI (HOP-18 NSCLC) was 20.1 µM and the TGI (DMS 273 small cell lung) was 43.7 µM. For the same compound, the TGI (LXFL 529 NSCLC) was 28.7 µM, the TGI (SNB-78 CNS) was 43.6 µM and the TGI (M19-MEL melanoma) was 5.71 µM. It also gave a TGI (XF 498 CNS) of 36.2 µM.

For `CCOC(=O)CN=c1nc(SC)sc2c(C(=O)OCC)nc(Sc3ccccc3)n12`, the TGI (DMS 114 small cell lung) was > 100 µM, the TGI (HOP-18 NSCLC) was > 100 µM and the TGI (RXF-631 renal) was > 100 µM. The TGI (LXFL 529 NSCLC) was > 100 µM, the TGI (M19-MEL melanoma) was > 100 µM and the TGI (XF 498 CNS) was > 100 µM.

`COc1cc(OC(=O)c2c(O)cc(O)c(O)c2C)cc(C)c1C(=O)Oc1cc(C)c(C(=O)O)c(O)c1` was tested, and the TGI (DMS 114 small cell lung) was > 100 µM, the TGI (HOP-18 NSCLC) was > 100 µM and the TGI (DMS 273 small cell lung) was > 100 µM. For the same compound, the TGI (RXF-631 renal) was > 100 µM, the TGI (LXFL 529 NSCLC) was > 100 µM and the TGI (SNB-78 CNS) was > 100 µM. For the same compound, the TGI (M19-MEL melanoma) was > 100 µM and the TGI (XF 498 CNS) was > 100 µM.

With `O=C1c2c(Br)sc(Br)c2C(NC(=O)C(F)(F)F)C1O` (stereo unspecified) the TGI (MDA-N) was 40.4 µM.

`O=c1cccccc1NCCCNc1cccccc1=O` was tested, and the TGI (DMS 114 small cell lung) was > 100 µM, the TGI (DMS 273 small cell lung) was > 100 µM and the TGI (RXF-631 renal) was > 100 µM. For the same compound, the TGI (LXFL 529 NSCLC) was > 100 µM, the TGI (SNB-78 CNS) was > 100 µM and the TGI (M19-MEL melanoma) was > 100 µM. The TGI (XF 498 CNS) was > 100 µM.

With `CN(C)P(=O)(/C(N)=N/Nc1ccc([N+](=O)[O-])cc1)N(C)C` the TGI (DMS 114 small cell lung) was > 100 µM, the TGI (DMS 273 small cell lung) was > 100 µM and the TGI (LXFL 529 NSCLC) was > 100 µM. For the same compound, the TGI (SNB-78 CNS) was > 100 µM, the TGI (M19-MEL melanoma) was > 100 µM and the TGI (XF 498 CNS) was > 100 µM.

With `Cc1ccc2nc3c(C(=O)NCCN(C)C)cccc3nc2c1` the TGI (DMS 114 small cell lung) was 11.6 µM, the TGI (HOP-18 NSCLC) was > 87.3 µM and the TGI (DMS 273 small cell lung) was > 100 µM. The TGI (LXFL 529 NSCLC) was > 47.1 µM, the TGI (SNB-78 CNS) was 41.1 µM and the TGI (M19-MEL melanoma) was 7.29 µM.

Compound `CCC[CH2][Sn]1([CH2]CCC)[O]C(=O)C(C(C)C)N=Cc2ccccc2[O]1` (stereo unspecified) has a GI50 (DMS 114 small cell lung) of 0.0918 µM, a TGI (DMS 114 small cell lung) of 0.229 µM and a GI50 (HOP-18 NSCLC) of 0.668 µM. For the same compound, the TGI (HOP-18 NSCLC) was 1.92 µM, the GI50 (DMS 273 small cell lung) was 0.73 µM and the TGI (DMS 273 small cell lung) was 2.04 µM. For the same compound, the GI50 (RXF-631 renal) was 0.166 µM, the TGI (RXF-631 renal) was 0.308 µM and the GI50 (LXFL 529 NSCLC) was 0.0617 µM. The TGI (LXFL 529 NSCLC) was 0.2 µM, the GI50 (SNB-78 CNS) was 0.227 µM and the TGI (SNB-78 CNS) was 1.23 µM. For the same compound, the GI50 (M19-MEL melanoma) was 0.232 µM, the TGI (M19-MEL melanoma) was 1.08 µM and the GI50 (XF 498 CNS) was > 100 µM. The TGI (XF 498 CNS) was > 100 µM.

With `CC(=O)OC1CC(O)C23COC(O)C1(C)C2CC(O)C1(C)C3C(=O)C(O)C2(C)C(c3ccoc3)CC3OC321` (stereo unspecified) the GI50 (MDA-N) was 0.0178 µM and the TGI (MDA-N) was > 100 µM.

`Cn1cc(C(=O)c2ccccc2)ccc1=O` was tested, and the TGI (DMS 114 small cell lung) was > 100 µM, the TGI (DMS 273 small cell lung) was > 100 µM and the TGI (LXFL 529 NSCLC) was > 100 µM. For the same compound, the TGI (SNB-78 CNS) was > 100 µM, the TGI (M19-MEL melanoma) was > 100 µM and the TGI (XF 498 CNS) was > 100 µM.

In the case of `CCCCCCCC(CC(=O)NC(CO)C(=O)NC(CO)CC(C)C)OC(=O)CC(CCCCCCC)OC(=O)CC(CCCCCCC)OC1OC(C)C(O)C(OC2OC(C)C(O)C(OC(C)=O)C2O)C1O` (stereo unspecified), the TGI (MDA-N) is reported as 19.5 µM.

In the case of `COc1ccc(C(C)c2cc3c(cc2OC)OCO3)cc1` (stereo unspecified), the TGI (DMS 114 small cell lung) is reported as 2.77 µM, the TGI (HOP-18 NSCLC) is reported as > 100 µM and the TGI (DMS 273 small cell lung) is reported as 1.29 µM. The TGI (LXFL 529 NSCLC) was > 42.7 µM, the TGI (SNB-78 CNS) was > 31.6 µM and the TGI (M19-MEL melanoma) was > 100 µM.

`CCc1[nH]c(=O)nc(N)c1-c1ccc(N2CCCCC2)c([N+](=O)[O-])c1` was tested, and the TGI (MDA-N) was > 100 µM.

For `COC(=O)C(=O)C(C(=O)C(=O)Nc1ccccc1C(N)=O)c1nc2ccc(Cl)cc2[nH]c1=O` (stereo unspecified), the TGI (MDA-N) was > 100 µM.

With `NC(CC(=O)OCc1ccccc1)C(=O)OCc1ccccc1` (stereo unspecified) the TGI (MDA-N) was > 100 µM.

With `CC(=O)OC[C@]12CC[C@H]3[C@@H](C[C@H]4O[C@]45[C@@H](O)C=CC(=O)[C@]35C)[C@@H]1CC[C@@H]2[C@H](C)[C@H]1CC(C)=C(C)C(=O)O1` the GI50 (DMS 114 small cell lung) was 0.324 µM and 0.357 µM, the TGI (DMS 114 small cell lung) was 0.823 µM and 1.12 µM and the GI50 (HOP-18 NSCLC) was 1.05 µM. The TGI (HOP-18 NSCLC) was 2.42 µM, the GI50 (DMS 273 small cell lung) was 0.605 µM and 0.42 µM and the TGI (DMS 273 small cell lung) was 1.51 µM. For the same compound, the GI50 (RXF-631 renal) was 0.679 µM and 0.987 µM, the TGI (RXF-631 renal) was 2.74 µM and the GI50 (LXFL 529 NSCLC) was 0.347 µM and 0.219 µM. For the same compound, the TGI (LXFL 529 NSCLC) was 0.824 µM, the GI50 (SNB-78 CNS) was 0.453 µM and 0.321 µM and the TGI (SNB-78 CNS) was 1.84 µM. The GI50 (M19-MEL melanoma) was 0.598 µM and 0.515 µM, the TGI (M19-MEL melanoma) was 2.32 µM and the GI50 (XF 498 CNS) was 0.422 µM and 0.234 µM. The TGI (XF 498 CNS) was 0.799 µM and 0.581 µM.

In the case of `CCOC(=O)NC(=O)c1cn(CCOCCOC(=O)NCCCCCCNC(=O)OCCOCCn2cc(C(=O)NC(=O)OCC)c(=O)[nH]c2=O)c(=O)[nH]c1=O`, the TGI (DMS 114 small cell lung) is reported as > 100 µM, the TGI (HOP-18 NSCLC) is reported as > 100 µM and the TGI (DMS 273 small cell lung) is reported as > 100 µM. The TGI (RXF-631 renal) was > 100 µM, the TGI (LXFL 529 NSCLC) was > 100 µM and the TGI (SNB-78 CNS) was > 100 µM. For the same compound, the TGI (M19-MEL melanoma) was > 100 µM.

In the case of `Cc1nc2ccccc2c(=O)n1NC(=O)c1ccccn1`, the TGI (MDA-N) is reported as > 100 µM.

With `Cc1cc(S(=O)(=O)Nc2nc(N)nc(N3N=CCC3C)n2)c(SCC(=O)O)cc1Cl` (stereo unspecified) the TGI (MDA-N) was > 10 µM.

`O=C(O)CP(=S)(S)c1ccccc1` (stereo unspecified) was tested, and the TGI (DMS 114 small cell lung) was > 100 µM, the TGI (DMS 273 small cell lung) was > 100 µM and the TGI (LXFL 529 NSCLC) was > 100 µM. The TGI (SNB-78 CNS) was > 100 µM, the TGI (M19-MEL melanoma) was > 100 µM and the TGI (XF 498 CNS) was > 100 µM.

In the case of `COC(=O)c1cccc2cccc(C(=O)Nc3ccc(C)cc3C)c12`, the TGI (DMS 114 small cell lung) is reported as > 100 µM, the TGI (HOP-18 NSCLC) is reported as > 100 µM and the TGI (DMS 273 small cell lung) is reported as > 100 µM. For the same compound, the TGI (RXF-631 renal) was > 100 µM, the TGI (LXFL 529 NSCLC) was > 100 µM and the TGI (SNB-78 CNS) was > 100 µM. The TGI (M19-MEL melanoma) was > 100 µM and the TGI (XF 498 CNS) was > 100 µM.

`Cc1ccccc1N(CCC#N)C1=NN(C(=O)CC(=O)Nc2ccccc2)C(c2ccccc2)C1` (stereo unspecified) was tested, and the TGI (HOP-18 NSCLC) was > 100 µM, the TGI (DMS 273 small cell lung) was > 100 µM and the TGI (RXF-631 renal) was > 100 µM. The TGI (LXFL 529 NSCLC) was > 100 µM, the TGI (SNB-78 CNS) was > 100 µM and the TGI (M19-MEL melanoma) was > 100 µM.

For `CC1(n2nc(-c3ccccc3)n(-c3ccccc3)c2=O)CSC1`, the TGI (DMS 114 small cell lung) was > 100 µM, the TGI (DMS 273 small cell lung) was > 100 µM and the TGI (LXFL 529 NSCLC) was > 100 µM. The TGI (SNB-78 CNS) was > 100 µM, the TGI (M19-MEL melanoma) was > 100 µM and the TGI (XF 498 CNS) was > 100 µM.
